pEC50, pIC50: −log10 of the molar value. Read-outs that look alike come from different tables or passages of the source.
How the values were obtained:
[1] = biological target: T1, TLR9 (Homo sapiens, UniProt Q9NR96); assay: Human PBMC cell-based assay, TLR9 agonist ODN-2216 stimulation, cytokine (IL-6 and IFNα) readout; settings: human PBMCs, read-out: TLR-9 EC50
T1 construct: lymphocytes, monocytes and dendritic cells that express TLR7, TLR8 and TLR9; endogenous in cells; host or cells: human PBMCs from healthy donors
T1 sequence (Q9NR96 26-1032): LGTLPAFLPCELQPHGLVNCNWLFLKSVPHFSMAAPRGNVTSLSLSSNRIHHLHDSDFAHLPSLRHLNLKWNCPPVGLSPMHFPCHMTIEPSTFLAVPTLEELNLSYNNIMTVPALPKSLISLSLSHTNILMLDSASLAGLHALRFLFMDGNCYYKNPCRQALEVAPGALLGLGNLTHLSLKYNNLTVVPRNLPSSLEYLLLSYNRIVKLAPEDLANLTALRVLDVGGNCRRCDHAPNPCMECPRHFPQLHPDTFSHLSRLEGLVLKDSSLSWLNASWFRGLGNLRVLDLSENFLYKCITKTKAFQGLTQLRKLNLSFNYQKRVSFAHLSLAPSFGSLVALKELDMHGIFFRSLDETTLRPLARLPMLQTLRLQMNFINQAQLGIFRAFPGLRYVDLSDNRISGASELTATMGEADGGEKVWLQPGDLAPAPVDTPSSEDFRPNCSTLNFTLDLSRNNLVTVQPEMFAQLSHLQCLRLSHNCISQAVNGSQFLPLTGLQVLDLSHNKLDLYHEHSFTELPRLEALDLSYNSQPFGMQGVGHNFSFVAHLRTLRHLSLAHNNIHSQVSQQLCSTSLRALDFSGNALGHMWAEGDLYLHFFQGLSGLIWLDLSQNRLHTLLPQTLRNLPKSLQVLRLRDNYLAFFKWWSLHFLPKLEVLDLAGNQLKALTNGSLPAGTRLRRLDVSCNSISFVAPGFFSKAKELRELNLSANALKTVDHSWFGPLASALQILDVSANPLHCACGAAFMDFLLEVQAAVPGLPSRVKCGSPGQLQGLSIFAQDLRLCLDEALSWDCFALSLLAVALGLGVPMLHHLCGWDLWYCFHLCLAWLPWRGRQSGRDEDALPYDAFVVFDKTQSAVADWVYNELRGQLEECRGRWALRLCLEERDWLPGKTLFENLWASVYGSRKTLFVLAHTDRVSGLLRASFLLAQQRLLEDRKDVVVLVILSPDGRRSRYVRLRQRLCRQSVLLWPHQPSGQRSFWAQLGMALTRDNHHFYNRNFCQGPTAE
Outline: (§1)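 Readout is IL-6 and IFNα in supernatants, quantified by electrochemiluminescence, with EC50 from a sigmoidal fit of cytokine versus concentration. Healthy-donor human PBMCs, 100,000 per well, got antagonist for 1 h at 37 °C, then 6 h agonist exposure: TLR7 via GS-986 at 400 nM final, TLR9 via ODN-2216 at 3 μM final.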

[2] = biological target: T2, TLR7 (Homo sapiens, UniProt Q9NYK1); assay: Human PBMC cell-based assay, TLR7 agonist GS-986 stimulation, cytokine (IL-6 and IFNα) readout; settings: human PBMCs, read-out: TLR-7 EC50
T2 construct: lymphocytes, monocytes and dendritic cells that express TLR7, TLR8 and TLR9; endogenous in cells; host or cells: human PBMCs from healthy donors
T2 sequence (Q9NYK1 27-1049): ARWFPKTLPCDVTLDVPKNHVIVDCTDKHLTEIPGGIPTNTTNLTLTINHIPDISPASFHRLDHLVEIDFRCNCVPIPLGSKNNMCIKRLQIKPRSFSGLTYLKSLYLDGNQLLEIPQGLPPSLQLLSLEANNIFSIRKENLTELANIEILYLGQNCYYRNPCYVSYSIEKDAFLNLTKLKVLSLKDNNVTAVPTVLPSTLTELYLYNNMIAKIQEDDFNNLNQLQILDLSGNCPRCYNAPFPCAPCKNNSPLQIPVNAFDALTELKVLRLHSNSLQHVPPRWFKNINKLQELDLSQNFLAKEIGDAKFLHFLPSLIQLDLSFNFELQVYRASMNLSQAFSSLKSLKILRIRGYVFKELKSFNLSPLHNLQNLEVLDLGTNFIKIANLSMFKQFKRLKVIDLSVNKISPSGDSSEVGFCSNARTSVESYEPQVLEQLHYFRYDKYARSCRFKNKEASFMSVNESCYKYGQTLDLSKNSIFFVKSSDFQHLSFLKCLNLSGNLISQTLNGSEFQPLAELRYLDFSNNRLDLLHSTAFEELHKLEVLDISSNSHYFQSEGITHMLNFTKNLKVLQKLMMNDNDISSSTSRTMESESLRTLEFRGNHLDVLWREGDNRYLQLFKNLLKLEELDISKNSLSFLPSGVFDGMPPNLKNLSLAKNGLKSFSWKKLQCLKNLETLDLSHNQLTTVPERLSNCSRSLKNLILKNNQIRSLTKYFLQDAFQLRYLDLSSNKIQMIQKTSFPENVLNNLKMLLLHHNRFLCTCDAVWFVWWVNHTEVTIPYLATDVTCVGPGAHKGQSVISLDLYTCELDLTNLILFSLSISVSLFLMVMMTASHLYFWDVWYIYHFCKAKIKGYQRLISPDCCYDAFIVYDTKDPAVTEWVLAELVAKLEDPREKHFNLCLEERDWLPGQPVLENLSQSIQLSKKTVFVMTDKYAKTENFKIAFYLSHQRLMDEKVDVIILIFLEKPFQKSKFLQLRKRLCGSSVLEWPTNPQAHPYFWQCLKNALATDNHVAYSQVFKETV
Outline: as §1

[3] = biological target: cloned hERG potassium channel encoded by the KCNH2 gene (Homo sapiens, UniProt Q12809); assay: hERG FASTPatch assay (QPatch patch clamp, HEK293T cells); assay type: cell-based; settings: HEK293T cells, 1, 3, 10 and 30 uM, room temperature; Table 27
Experimental: The FASTPatch® Assay (Charles River) was used to examine the in vitro effects of the compounds provided herein on the cloned hERG potassium channel encoded by the KCNH2 gene and stably expressed in HEK293T cells. Vehicle, test and control article formulations were prepared by diluting DMSO stock solutions in HB-PS (HEPES-buffered physiological saline solution) and were delivered to cells via the QPatch robot pipetting system to a final concentration of 0.3% DMSO. Test compound final concentrations of 1, 3, 10 and 30 uM were applied to cells (n >3, where n=the number of cells/concentration) in ascending order in at least three minute intervals separated by solution exchange. The positive control, 50 nM cisparide, was applied in the same manner. Cell membrane currents were recorded at room temperature with up to 48 parallel patch clamp amplifiers in the QPatch HT® or QPatch HTX® system, and only cells with validated whole-cell recordings (seal resistance >200 MQ and leak current <25% channel current) were used. Onset and block of hERG current was measured using a stimulus voltage pattern consisting of a 500 ms prepulse to −40 mV, a 2-second activating pulse to +40 mV, followed by a 2-second test pulse to −40 mV. The pulse pattern was repeated continuously at 10-second intervals from a holding potential of −80 mV. % Block={1-1/[1+([Test]/IC50)^N]}*100% Where [Test] is the concentration of test article, IC50 is the concentration of the test article producing half-maximal inhibition, N is the Hill coefficient and % Block is the percentage of current inhibited at each concentration of the test article. Nonlinear least squares fits will be solved with the Solver add-in for Excel 2000 or later (Microsoft, Redmon, WA). TurboSol analysis for test compound solubility was performed for each concentration tested using a Nephelostar reader measuring light scatter from a 635 nm laser source. Based on validation experiments, light scatter above four times the background level was considered an indication of the presence of particles in suspension.

[4] = ODN-2216 3 μM, 6 hours, Table 26
[5] = GS-986 400 nM, 6 hours, Table 26

cloned hERG potassium channel encoded by the KCNH2 gene, sequence (Q12809 whole entry): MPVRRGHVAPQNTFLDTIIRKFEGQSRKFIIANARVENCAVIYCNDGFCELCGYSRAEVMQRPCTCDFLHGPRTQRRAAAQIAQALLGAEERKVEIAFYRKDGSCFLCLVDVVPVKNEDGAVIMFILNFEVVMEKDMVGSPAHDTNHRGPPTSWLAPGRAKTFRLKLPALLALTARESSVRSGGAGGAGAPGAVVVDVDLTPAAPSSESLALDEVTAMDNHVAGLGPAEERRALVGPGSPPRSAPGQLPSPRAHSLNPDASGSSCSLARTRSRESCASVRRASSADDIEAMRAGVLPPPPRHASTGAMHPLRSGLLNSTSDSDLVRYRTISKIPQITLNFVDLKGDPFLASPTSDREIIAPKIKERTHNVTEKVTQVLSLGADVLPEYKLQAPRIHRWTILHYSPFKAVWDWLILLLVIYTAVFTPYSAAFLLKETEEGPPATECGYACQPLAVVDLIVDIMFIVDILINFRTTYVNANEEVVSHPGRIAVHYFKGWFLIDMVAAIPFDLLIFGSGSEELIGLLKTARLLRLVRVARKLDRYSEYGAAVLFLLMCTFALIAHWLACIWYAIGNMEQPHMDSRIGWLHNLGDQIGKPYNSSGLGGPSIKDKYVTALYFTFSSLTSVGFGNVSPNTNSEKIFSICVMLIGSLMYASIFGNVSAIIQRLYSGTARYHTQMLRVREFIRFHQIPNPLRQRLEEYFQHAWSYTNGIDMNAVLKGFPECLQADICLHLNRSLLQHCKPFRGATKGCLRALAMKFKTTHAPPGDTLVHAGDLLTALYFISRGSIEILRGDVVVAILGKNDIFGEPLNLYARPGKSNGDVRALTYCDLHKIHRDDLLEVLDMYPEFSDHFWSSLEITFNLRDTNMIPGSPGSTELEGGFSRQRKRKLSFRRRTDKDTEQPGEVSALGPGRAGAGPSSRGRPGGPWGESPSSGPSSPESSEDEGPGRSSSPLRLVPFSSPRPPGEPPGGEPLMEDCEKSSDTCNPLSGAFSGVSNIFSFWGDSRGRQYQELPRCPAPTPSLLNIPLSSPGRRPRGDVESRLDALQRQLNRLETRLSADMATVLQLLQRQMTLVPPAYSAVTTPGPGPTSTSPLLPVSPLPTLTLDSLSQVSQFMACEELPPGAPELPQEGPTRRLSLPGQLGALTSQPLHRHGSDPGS

## Cc1cc(-c2[nH]c3ccc(-c4ccnc(N5CCNCC5)c4)cc3c2C(C)C)cc(C)n1 [Example B, reference compound]
[1]; Table 27 comparison
  pEC50: 6.55
[2]; Table 27 comparison
  pEC50: 8.11
[3]
  pIC50: 5.68

## Cc1cc(-c2[nH]c3ccc(-c4ccc(N5CCC(C)(N)CC5)nc4)cc3c2C(C)C)cc(C)n1 [Example D, reference compound]
[1]; Table 27 comparison
  pEC50: 6.60
[2]; Table 27 comparison
  pEC50: 7.92
[3]
  pIC50: 5.11

## Cc1cc(-c2[nH]c3cc(-c4ccnc(N5CCNCC5)c4)ccc3c2C)cc(C)n1 [Example 64]
[1]; [4]
  pEC50: 6.87
[2]; [5]
  pEC50: 6.50
[3]
  pIC50: 4.69

## Cc1cc(-c2[nH]c3cc(-c4ccc(N5CCC(C)(N)CC5)nc4)ccc3c2C)cc(C)n1 [Example 23]
[1]; [4]
  pEC50: 7.54
[2]; [5]
  pEC50: 7.77
[3]
  pIC50: 4.73

## Cc1cc(-c2[nH]c3ccc(C4CCCNC4)cc3c2C(C)C)cc(C)n1 (stereo not drawn) [Example C, reference compound]
[1]; Table 27 comparison
  pEC50: 6.23
[2]; Table 27 comparison
  pEC50: 8.64
[3]
  pIC50: 4.96

— patent US20250002471A1 (Gilead Sciences, Inc., priority 2020, published 2025)
